Test results taken from patent US20200087314A1, “HISTONE DEACETYLASE INHIBITORS” (BIOMARIN PHARMACEUTICAL INC., priority 2016, published 2020).
Structures can show the parent of a compound that is named as a salt.

System: Frataxin (FXN) mRNA expression
Experiment: Effect of HDAC inhibitors on frataxin (FXN) mRNA expression in iPSC derived neuronal cells (qRT-PCR)
Assay type: cell-based
Details: iPSC derived neuronal cells differentiated 16 days, compound incubated 24 h
Protocol: Effect of HDAC Inhibitors on Frataxin (FXN) mRNA Expression
Method: mRNA quantification of compound-treated iPSC derived neuronal cells Neuronal stem cells were cultured in Neurobasal A medium (Life technologies #10888022) supplemented with N2, B27 (Life technologies #17502-048 and #17504-044), L-glutamine (Life technologies #25030081), supplemented with 20 ng/ml EGF (R&D Systems #236-EG) and 20 ng/ml bFGF (BioPioneer # HRP-0011). Neuronal differentiation was initiated by removing growth factors and culturing cells in Neurobasal A with N2 and B27. Cells were allowed to differentiate for 16 days. HDAC inhibitory compound was then added and incubate for 24 h. RNA isolation was performed using the RNeasy Plus mini kit (QIAgen #74134) using a QIAcube instrument per manufacturer's instructions. qRT-PCR was performed using qScript One-Step SYBR Green qRT-PCR Kit (Quanta Biosciences 170-8893BR) with the following conditions: 20 minutes at 50° C., 5 minutes at 95° C., and then 40 cycles of 20 seconds at 95° C., 20 seconds at 55° C., 30 seconds at 72° C. The primer sequences to detect expression of FXN were: 5′-[…]-3′ and 5′-[…]-3′.
Data for additional compounds for iPSC fold inductions and cLogP are shown in Table 4 The ranges reported for cLogP refer to the following. A<1, 1<B<2, 2<C<3, 3<D<5, E>5. NA refers to “not available.”

Compound	Fold Induction
C[C@H]1CN(CC2CC2)CCN1Cc1ccc(C(=O)Nc2ccccc2N)cc1 [Compound 481, (S)-N-(2-aminophenyl)-4-((4-(cyclopropylmethyl)-2-methylpiperazin-1-yl)methyl)benzamide]	1.6
CC(C)=CC1CCN(Cc2ccc(C(=O)Nc3ccccc3N)cc2)CC1 [Compound 472, N-(2-aminophenyl)-4-((4-(2-methylprop-1-en-1-yl)piperidin-1-yl)methyl)benzamide]	1.5
CC(C)(O)CN1CCC(Cc2ccc(C(=O)Nc3ccc(F)cc3N)cc2)CC1 [Compound 161, N-(2-amino-4-fluorophenyl)-4-((1-(2-hydroxy-2-methylpropyl)piperidin-4-yl)methyl)benzamide]	1.2
Nc1ccccc1NC(=O)c1ccc(CN2CC3(CNC3)C2)cc1 [Compound 241, 4-((2,6-diazaspiro[3.3]heptan-2-yl)methyl)-N-(2-aminophenyl)benzamide]	1.9
Cl.Cl.Nc1ccccc1NC(=O)c1ccc(CN2CCC3(CCCCC3)CC2)cc1 [Compound 174, 4-((3-azaspiro[5.5]undecan-3-yl)methyl)-N-(2-aminophenyl)benzamide]	1.1
Nc1ccccc1NC(=O)c1ccc(CC2CCN(CC3CC3)C2)cc1 (stereo not drawn) [Compound 555, N-(2-aminophenyl)-4-((1-(cyclopropylmethyl)pyrrolidin-3-yl)methyl)benzamide]	1.11
C[C@@H]1CN(Cc2ccc(C(=O)Nc3ccccc3N)cc2)CCN1CC1CC1 [Compound 479, (R)-N-(2-aminophenyl)-4-((4-(cyclopropylmethyl)-3-methylpiperazin-1-yl)methyl)benzamide]	2.2
C[C@@H]1CN(Cc2ccc(C(=O)Nc3ccccc3N)cc2)[C@@H](C)CN1CC1CC1 (racemic) [Compound 477, N-(2-aminophenyl)-4-(((2S,5R)-4-(cyclopropylmethyl)-2,5-dimethylpiperazin-1-yl)methyl)benzamide]	1.8
CC1(C)CC(Cc2ccc(C(=O)Nc3ccccc3N)cc2)CCN1 (stereo not drawn) [Compound 359, N-(2-aminophenyl)-4-((2,2-dimethylpiperidin-4-yl)methyl)benzamide]	1.9
Nc1cc(F)ccc1NC(=O)c1ccc(CC2CCN(CC3CC3)CC2)cc1 [Compound 163, N-(2-amino-4-fluorophenyl)-4-((1-(cyclopropylmethyl)piperidin-4-yl)methyl)benzamide]	1.2
CC(C)(O)CN1CCCN(Cc2ccc(C(=O)Nc3ccccc3N)cc2)CC1 [Compound 486, N-(2-aminophenyl)-4-((4-(2-hydroxy-2-methylpropyl)-1,4-diazepan-1-yl)methyl) benzamide]	1.9
CC(C)(O)CN1CCC(Cc2ccc(C(=O)Nc3ccccc3N)cc2)CC1(C)C (stereo not drawn) [Compound 357, N-(2-aminophenyl)-4-((1-(2-hydroxy-2-methylpropyl)-2,2-dimethylpiperidin-4-yl)methyl)benzamide]	1.7
CC(C)(O)CN1CCN(Cc2ccc(C(=O)Nc3ccccc3N)cc2)CC1.Cl.Cl.Cl [Compound 146, N-(2-aminophenyl)-4-((4-(2-hydroxy-2-methylpropyl)piperazin-1-yl)methyl)benzamide]	1.8
C[C@@H]1CN(Cc2ccc(C(=O)Nc3ccccc3N)cc2)CCN1CC(C)(C)O [Compound 480, (R)-N-(2-aminophenyl)-4-((4-(2-hydroxy-2-methylpropyl)-3-methylpiperazin-1-yl)methyl)benzamide]	2.0
C[C@@H]1CN(Cc2ccc(C(=O)Nc3ccccc3N)cc2)C[C@H](C)N1CC1CC1 [Compound 487, N-(2-aminophenyl)-4-(((3R,5S)-4-(cyclopropylmethyl)-3,5-dimethylpiperazin-1-yl)methyl)benzamide]	1.3
CC(C)(C)CN1CCC(Cc2ccc(C(=O)Nc3ccc(F)cc3N)cc2)CC1 [Compound 162, N-(2-amino-4-fluorophenyl)-4-((1-neopentylpiperidin-4-yl)methyl)benzamide]	1.3
Nc1ccccc1NC(=O)c1ccc(CN2CCC2)cc1 [Compound 176, N-(2-aminophenyl)-4-(azetidin-1-ylmethyl)benzamide]	1.5
CC(C)(O)CC1CCN(Cc2ccc(C(=O)Nc3ccccc3N)cc2)CC1 [Compound 181, N-(2-aminophenyl)-4-((4-(2-hydroxy-2-methylpropyl)piperidin-1-yl)methyl)benzamide]	1.5

Compound	Fold Induction
CC1(C)CN(Cc2ccc(C(=O)Nc3ccccc3N)cc2)CCN1CC1CC1 [Compound 483, N-(2-aminophenyl)-4-((4-(cyclopropylmethyl)-3,3-dimethylpiperazin-1-yl)methyl)benzamide]	1.7
C[C@@H]1CN(Cc2ccc(C(=O)Nc3ccccc3N)cc2)C[C@H](C)N1CC(C)(C)O [Compound 488, N-(2-aminophenyl)-4-(((3R,5S)-4-(2-hydroxy-2-methylpropyl)-3,5-dimethylpiperazin-1-yl)methyl)benzamide]	1.5
CC(C)(O)CN1CCN(Cc2ccc(C(=O)Nc3ccccc3N)cc2)CC1(C)C [Compound 484, N-(2-aminophenyl)-4-((4-(2-hydroxy-2-methylpropyl)-3,3-dimethylpiperazin-1-yl)methyl)benzamide]	1.6
Nc1ccccc1NC(=O)c1ccc(CN2CCC3(CC2)COC3)cc1 [Compound 175, 4-((2-oxa-7-azaspiro[3.5]nonan-7-yl)methyl)-N-(2-aminophenyl)benzamide]	1.5
C[C@H]1CN(CC(C)(C)O)CCN1Cc1ccc(C(=O)Nc2ccccc2N)cc1 [Compound 482, (S)-N-(2-aminophenyl)-4-((4-(2-hydroxy-2-methylpropyl)-2-methylpiperazin-1-yl)methyl)benzamide]	1.7
CC1(C)CN(CC2CC2)CCN1Cc1ccc(C(=O)Nc2ccccc2N)cc1 [Compound 491, N-(2-aminophenyl)-4-((4-(cyclopropylmethyl)-2,2-dimethylpiperazin-1-yl)methyl)benzamide]	1.7
C[C@@H]1CN(Cc2ccc(C(=O)Nc3ccccc3N)cc2)[C@@H](C)CN1CC(C)(C)O (racemic) [Compound 478, N-(2-aminophenyl)-4-(((2S,5R)-4-(2-hydroxy-2-methylpropyl)-2,5-dimethylpiperazin-1-yl)methyl)benzamide]	2.1
Nc1cc(F)ccc1NC(=O)c1ccc(CC2CN(CC3CC3)C2)cc1 [Compound 169, N-(2-amino-4-fluorophenyl)-4-((1-(cyclopropylmethyl)azetidin-3-yl)methyl)benzamide]	1.3
CC(C)(O)CN1CCN(Cc2ccc(C(=O)Nc3ccccc3N)cc2)C(C)(C)C1 [Compound 492, N-(2-aminophenyl)-4-((4-(2-hydroxy-2-methylpropyl)-2,2-dimethylpiperazin-1-yl)methyl)benzamide]	1.2
C[C@@H]1CN(CC2CC2)C[C@H](C)N1Cc1ccc(C(=O)Nc2ccccc2N)cc1 [Compound 489, N-(2-aminophenyl)-4-(((2R,6S)-4-(cyclopropylmethyl)-2,6-dimethylpiperazin-1-yl)methyl)benzamide]	1.5
C[C@@H]1CN(CC(C)(C)O)C[C@H](C)N1Cc1ccc(C(=O)Nc2ccccc2N)cc1 [Compound 490, N-(2-aminophenyl)-4-(((2R,6S)-4-(2-hydroxy-2-methylpropyl)-2,6-dimethylpiperazin-1-yl)methyl)benzamide]	1.4
Nc1ccccc1NC(=O)c1ccc(CN2CCCN(CC3CC3)CC2)cc1 [Compound 485, N-(2-aminophenyl)-4-((4-(cyclopropylmethyl)-1,4-diazepan-1-yl)methyl) benzamide trihydrochloride]	2.2
Cl.Cl.Nc1ccccc1NC(=O)c1ccc(CN2CCCCC2)cc1 [Compound 171, N-(2-aminophenyl)-4-(piperidin-1-ylmethyl)benzamide]	0.9
Nc1ccccc1NC(=O)c1ccc(CN2CC3(C2)CN(CC2CC2)C3)cc1 [Compound 238, N-(2-aminophenyl)-4-((6-(cyclopropylmethyl)-2,6-diazaspiro[3.3]heptan-2-yl)methyl)benzamide]	1.5
Cl.Cl.Cl.Nc1ccccc1NC(=O)c1ccc(CN2CCN(CC3CC3)CC2)cc1 [Compound 147, N-(2-aminophenyl)-4-((4-(cyclopropylmethyl)piperazin-1-yl)methyl)benzamide]	1.8
CC1(C)CCN(Cc2ccc(C(=O)Nc3ccccc3N)cc2)CC1.Cl.Cl [Compound 172, N-(2-aminophenyl)-4-((4,4-dimethylpiperidin-1-yl)methyl)benzamide]	1.4
CC(C)(O)CN1CCCC(Cc2ccc(C(=O)Nc3ccccc3N)cc2)CC1.Cl.Cl (stereo not drawn) [Compound 379, N-(2-aminophenyl)-4-((1-(2-hydroxy-2-methylpropyl)azepan-4-yl)methyl)benzamide dihydrochloride]	2.1
CC1(C)CC(Cc2ccc(C(=O)Nc3ccccc3N)cc2)CCN1CC1CC1 (stereo not drawn) [Compound 356, N-(2-aminophenyl)-4-((1-(cyclopropylmethyl)-2,2-dimethylpiperidin-4-yl)methyl)benzamide]	2.0
